In patent publication US9238639B2, “Aromatic ring compound” (TAKEDA PHARMACEUTICAL COMPANY LIMITED, priority 2012, dated 2016):

Molecular target: T1, human GOAT (Homo sapiens, UniProt Q96T53)
T1 construct: made in house; host or cells: Sf9 insect cells (BacToBac baculovirus, pFastBac1 vector); microsome fraction
T1 sequence (Q96T53 1-435): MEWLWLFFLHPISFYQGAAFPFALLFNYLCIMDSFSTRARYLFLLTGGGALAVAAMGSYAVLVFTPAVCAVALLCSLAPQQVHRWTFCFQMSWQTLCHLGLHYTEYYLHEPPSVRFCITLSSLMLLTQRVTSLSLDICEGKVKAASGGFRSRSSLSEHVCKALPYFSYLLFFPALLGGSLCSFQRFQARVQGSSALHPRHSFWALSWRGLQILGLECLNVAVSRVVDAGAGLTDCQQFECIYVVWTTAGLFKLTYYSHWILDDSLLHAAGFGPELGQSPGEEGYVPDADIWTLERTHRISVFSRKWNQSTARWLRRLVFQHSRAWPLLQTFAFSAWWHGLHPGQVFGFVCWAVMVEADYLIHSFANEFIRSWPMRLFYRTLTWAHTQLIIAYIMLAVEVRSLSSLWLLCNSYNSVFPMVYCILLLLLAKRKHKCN
Experiment: GOAT enzyme activity measurement by HTRF method (human GOAT-expressing microsome fraction)
Format: biochemical
Settings: 10 μM compound; human GOAT-expressing Sf9 microsome fraction; octanoyl-CoA and Ghrelin-biotin substrates; 0% control without compound, 100% control without enzyme
Procedure: Human GOAT (Accession NO: EU518495) cDNA was amplified by PCR including reaction of (1) 98° C., 1 min, (2) 35 repeats of 98° C., 10 sec·65° C., 15 sec·72° C., 80 sec, and (3) 72° C., 5 min, using human stomach cDNA library (Takara Bio) as a template and Pyrobest DNA Polymerase (Takara Bio). The amplified fragment was treated with restriction enzymes, inserted into Stu I/Not I sites of pFastBacl (Invitrogen) by using Ligation High (TOYOBO), and transfected into ECOS JM109 (Nippon Gene) to construct pFB/hGOAT.
Production of Baculovirus and Preparation of Insect Cell Microsome Fraction
For preparation of baculovirus from pFB/hGOAT, BacToBac baculovirus expression system (Invitrogen) was used. The virus titer was measured by Real-Time PCR using SYBR Green (Takara Bio). Sf9 cells were infected with the obtained baculovirus at Multiplicity of Infection (MOI)=0.2, and cultured for 70 hr. The Sf9 cells were recovered, suspended in a suspension buffer (TBS (0.3 M NaCl), 1 mM DTT, 1 mM EDTA, Complete (Roche) (1 tablet/50 mL)), and the cells were disrupted twice on ice at 20000 rpm, 30 sec using a polytron homogenizer. The cell disruption solution was centrifuged at 1000 rpm for 10 min at 4° C., the supernatant was further ultracentrifuged at 40000 rpm for 30 min at 4° C. and the precipitate was recovered. The obtained precipitate was suspended in the suspension buffer used above to give a human GOAT-expressing microsome fraction. The protein level was measured using BCA Protein assay Reagent (PIERCE).
Enzyme Activity Measurement by HTRF Method
A compound solution (2 μL) diluted with an assay buffer containing 50 mM Tris-HCl (pH 7.5), 0.5% TWEEN20, and Complete to 15% DMSO and 90 μg/mL human GOAT-expressing microsome fraction (2 μL) were incubated at room temperature for 20 min, after which a substrate mixed solution (2 μL) containing 30 μM octanoyl-CoA (CHEM-IMPLEX) and 3 μM Ghrelin-biotin ([…]epsilon aminocaproic acid-biotin (Greiner Coutom synthesis)) was added to 384 white small volume plate (Greiner). After reaction for 20 min, 2 μL of citrate buffer (pH3) (mixed solution of 0.1 M citric acid (39.8 mL) and 0.2 M Na2HPO4 (10.2 mL)), 2 μL of 25 nM anti-active ghrelin antibody (produced in mouse), 5 μL of Eu(K)-Anti Mouse IgG Pab (Cis Bio) 100-fold diluted with HTRF detection buffer (Cis Bio) and 5 μL of streptavidin-Xlent (Cis Bio) 66.6-fold diluted with HTRF detection buffer (Cis Bio) were added. After incubation at room temperature for 1 hr or longer, the fluorescence values at 620 nm and 665 nm were measured by Envision (PerkinElmer). The data was calculated [(665 nm signal/620 nm signal)×10^4], and the inhibitory activity against human GOAT was shown by the data where 0% control was without compound, and 100% control was without enzyme.

inhibition at 10 µM [%]	Structure (SMILES)
83.2	CCS(=O)(=O)NC(=O)Cc1csc2cc(OCc3ccc(Cl)cc3Cl)ccc12 [Example 138, 2-(6-((2,4-Dichlorobenzyl)oxy)-1-benzothiophen-3-yl)-N-(ethylsulfonyl)acetamide]
99.5	COC(=O)Cc1c(C)sc2cc(OCc3cc(C(F)(F)F)nn3C)cc(Cl)c12 [Example 306, Methyl (4-chloro-2-methyl-6-((1-methyl-3-(trifluoromethyl)-1H-pyrazol-5-yl)methoxy)-1-benzothiophen-3-yl)acetate]
93	O=C(O)C[C@@H]1COc2cc(OCc3ccc(Cl)cc3Cl)ccc21 [Example 262, ((3S)-6-((2,4-Dichlorobenzyl)oxy)-2,3-dihydro-1-benzofuran-3-yl)acetic acid]
106	Cc1sc2cc(OCc3cc(C(F)(F)F)nn3C)cc(Cl)c2c1CC(=O)O [Example 307, (4-Chloro-2-methyl-6-((1-methyl-3-(trifluoromethyl)-1H-pyrazol-5-yl)methoxy)-1-benzothiophen-3-yl)acetic acid]
86	O=C(O)C[C@H]1COc2cc(OCc3ccc(Cl)cc3Cl)ccc21 [Example 263, ((3R)-6-((2,4-Dichlorobenzyl)oxy)-2,3-dihydro-1-benzofuran-3-yl)acetic acid]
94.9	COC(=O)Cc1csc2cc(OCc3ccc(C(F)(F)F)nc3C)cc(F)c12 [Example 304, Methyl (4-fluoro-6-((2-methyl-6-(trifluoromethyl)pyridin-3-yl)methoxy)-1-benzothiophen-3-yl)acetate]
99.9	COC(=O)Cc1csc2cc(OCc3cc(C(F)(F)F)nn3C)cc(F)c12 [Example 302, Methyl (4-fluoro-6-((1-methyl-3-(trifluoromethyl)-1H-pyrazol-5-yl)methoxy)-1-benzothiophen-3-yl)acetate]
51.5	COC(=O)Cc1c(C)sc2cc(OCc3ccc(C(F)(F)F)nc3C)cc(Cl)c12 [Example 308, Methyl (4-chloro-2-methyl-6-((2-methyl-6-(trifluoromethyl)pyridin-3-yl)methoxy)-1-benzothiophen-3-yl)acetate]
93.1	Cc1nc(C(F)(F)F)ccc1COc1ccc2c(CC(=O)O)csc2c1 [Example 135, (6-((2-Methyl-6-(trifluoromethyl)pyridin-3-yl)methoxy)-1-benzothiophen-3-yl)acetic acid]
94.8	Cc1ccc(COc2cc(C)c3c(c2C)OCC3CC(=O)O)c(C)n1 (stereo not shown) [Example 289, (6-((2,6-Dimethylpyridin-3-yl)methoxy)-4,7-dimethyl-2,3-dihydro-1-benzofuran-3-yl)acetic acid]
100	Cc1nc(C(F)(F)F)ncc1COc1cc(C)c2c(CC(=O)O)csc2c1 [Example 140, (4-Methyl-6-((4-methyl-2-(trifluoromethyl)pyrimidin-5-yl)methoxy)-1-benzothiophen-3-yl)acetic acid]

The next lines start with the molecule.

Structure (SMILES)	inhibition at 10 µM [%]
Cc1cc(COc2cc(Cl)c3c(CC(=O)O)csc3c2)n(C)n1 [Example 26, (4-Chloro-6-((1,3-dimethyl-1H-pyrazol-5-yl)methoxy)-1-benzothiophen-3-yl)acetic acid]	105
O=C(Cc1csc2cc(OCc3ccc(Cl)cc3Cl)ccc12)N[C@@H](CO)C(=O)O [Example 56, N-((6-((2,4-Dichlorobenzyl)oxy)-1-benzothiophen-3-yl)acetyl)serine]	97
COC(=O)Cc1csc2cc(OCc3ccc(C(F)(F)F)nc3C)cc(Cl)c12 [Example 15, Methyl(4-chloro-6-((2-methyl-6-(trifluoromethyl)pyridin-3-yl)methoxy)-1-benzothiophen-3-yl)acetate]	91.6
Cc1nc(C(F)(F)F)ccc1COc1cc(Cl)c2c(CC(=O)O)csc2c1F [Example 40, (4-Chloro-7-fluoro-6-((2-methyl-6-(trifluoromethyl)pyridin-3-yl)methoxy)-1-benzothiophen-3-yl)acetic acid]	106
O=C(O)CC1CS(=O)(=O)c2cc(OCc3ccc(Cl)cc3Cl)ccc21 (stereo not shown) [Example 52, (6-((2,4-Dichlorobenzyl)oxy)-1,1-dioxido-2,3-dihydro-1-benzothiophen-3-yl)acetic acid]	79
COC(=O)Cc1csc2c(F)c(OCc3cc(C(F)(F)F)nn3C)cc(C)c12 [Example 33, Methyl(7-fluoro-4-methyl-6-((1-methyl-3-(trifluoromethyl)-1H-pyrazol-5-yl)methoxy)-1-benzothiophen-3-yl)acetate]	96.1
Cc1ccc(COc2cc(C)c3c(CC(=O)O)coc3c2C)c(C)n1 [Example 44, (6-((2,6-Dimethylpyridin-3-yl)methoxy)-4,7-dimethyl-1-benzofuran-3-yl)acetic acid]	102
Cc1nc(C(F)(F)F)ccc1COc1cc(C)c2c(CC(=O)O)csc2c1 [Example 10, (4-Methyl-6-((2-methyl-6-(trifluoromethyl)pyridin-3-yl)methoxy)-1-benzothiophen-3-yl)acetic acid]	99.2
Cc1cc(OCc2cc(C(F)(F)F)nn2C)c(F)c2scc(CC(=O)O)c12 [Example 34, (7-Fluoro-4-methyl-6-((1-methyl-3-(trifluoromethyl)-1H-pyrazol-5-yl)methoxy)-1-benzothiophen-3-yl)acetic acid]	104
Cc1c(OCc2ccc(Cl)cc2Cl)cc(C)c2c(CC(=O)O)coc12 [Example 46, (6-((2,4-Dichlorobenzyl)oxy)-4,7-dimethyl-1-benzofuran-3-yl)acetic acid]	103
COC(=O)Cc1coc2c(C)c(OCc3ccc(Cl)cc3Cl)cc(C)c12 [Example 45, Methyl(6-((2,4-dichlorobenzyl)oxy)-4,7-dimethyl-1-benzofuran-3-yl)acetate]	68.7
Cc1ccc(COc2cc(Cl)c3c(CC(=O)O)csc3c2)c(C)n1 [Example 14, (4-Chloro-6-((2,6-dimethylpyridin-3-yl)methoxy)-1-benzothiophen-3-yl)acetic acid]	107
Cc1nc(C(F)(F)F)ccc1COc1cc(C)c2c(CC(=O)O)csc2c1C [Example 24, (4,7-Dimethyl-6-((2-methyl-6-(trifluoromethyl)pyridin-3-yl)methoxy)-1-benzothiophen-3-yl)acetic acid]	105
COC(=O)Cc1csc2cc(OCc3ccc(Cl)cc3Cl)cc(C)c12 [Example 5, Methyl(6-((2,4-dichlorobenzyl)oxy)-4-methyl-1-benzothiophen-3-yl)acetate]	84.4
COC(=O)Cc1coc2c(C)c(OCc3ccc(C)nc3C)cc(C)c12 [Example 43, Methyl(6-((2,6-dimethylpyridin-3-yl)methoxy)-4,7-dimethyl-1-benzofuran-3-yl)acetate]	92.7
Cc1ccc(COc2cc(C(F)(F)F)c3c(CC(=O)O)csc3c2)c(C)n1 [Example 31, (6-((2,6-Dimethylpyridin-3-yl)methoxy)-4-(trifluoromethyl)-1-benzothiophen-3-yl)acetic acid]	103
O=C(O)Cc1coc2c(Cl)c(OCc3ccc(Cl)cc3Cl)ccc12 [Example 42, (7-Chloro-6-((2,4-dichlorobenzyl)oxy)-1-benzofuran-3-yl)acetic acid]	100
